Results on 7 compounds are retold here after US20230272448A1, “AN IMPROVED SUBSTRATE COCKTAIL ASSAY FOR HIGH-THROUGHPUT SCREENING OF CYTOCHROME P450 INHIBITORS” (priority 2020, published 2023).

Molecules are shown by their SMILES.

In series [1] the target is T1, CYP2B6 (Homo sapiens, UniProt P20813).
T1 sequence (P20813 1-491): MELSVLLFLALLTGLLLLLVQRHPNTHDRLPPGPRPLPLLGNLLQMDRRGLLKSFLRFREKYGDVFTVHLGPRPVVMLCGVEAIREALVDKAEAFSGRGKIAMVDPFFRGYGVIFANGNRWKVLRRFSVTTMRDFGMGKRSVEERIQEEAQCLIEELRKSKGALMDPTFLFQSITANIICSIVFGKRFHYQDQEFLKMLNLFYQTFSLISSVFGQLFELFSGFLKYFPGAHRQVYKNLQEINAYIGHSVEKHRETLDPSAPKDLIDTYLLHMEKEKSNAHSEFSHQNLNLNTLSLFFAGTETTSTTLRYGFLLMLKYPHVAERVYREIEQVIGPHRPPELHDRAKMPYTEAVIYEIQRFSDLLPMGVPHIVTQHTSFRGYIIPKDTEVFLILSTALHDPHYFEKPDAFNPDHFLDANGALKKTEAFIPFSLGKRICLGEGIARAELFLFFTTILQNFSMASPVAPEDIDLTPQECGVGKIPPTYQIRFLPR
Particulars: literature reported Km; metabolite hydroxyl-bupropion; cited from earlier work.

In series [2] the target is T2, CYP2A6 (Homo sapiens, UniProt P11509).
T2 sequence (P11509 1-494): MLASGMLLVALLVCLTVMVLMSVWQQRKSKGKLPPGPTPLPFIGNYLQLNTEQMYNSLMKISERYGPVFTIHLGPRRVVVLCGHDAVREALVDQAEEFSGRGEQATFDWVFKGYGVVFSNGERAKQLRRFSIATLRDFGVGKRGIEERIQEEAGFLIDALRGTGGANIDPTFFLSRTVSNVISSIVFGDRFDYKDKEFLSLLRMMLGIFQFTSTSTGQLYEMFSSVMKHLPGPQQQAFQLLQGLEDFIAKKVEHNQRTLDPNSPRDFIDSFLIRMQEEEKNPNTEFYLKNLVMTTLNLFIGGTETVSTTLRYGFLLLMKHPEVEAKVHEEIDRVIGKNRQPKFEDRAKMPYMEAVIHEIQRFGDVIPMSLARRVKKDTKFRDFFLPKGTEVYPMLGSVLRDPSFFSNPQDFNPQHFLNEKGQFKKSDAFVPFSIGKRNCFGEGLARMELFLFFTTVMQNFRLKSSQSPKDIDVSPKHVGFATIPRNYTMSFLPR
To be noted: literature reported Km; metabolite hydroxyl-coumarine; cited from earlier work.

In series [3] the target is CYP2C9 (Homo sapiens, UniProt P11712). To be noted: literature reported Km; metabolite hydroxyl-diclofenac; cited from earlier work.
Series [4] addresses T3, CYP2C8 (Homo sapiens, UniProt P10632).
T3 sequence (P10632 1-490): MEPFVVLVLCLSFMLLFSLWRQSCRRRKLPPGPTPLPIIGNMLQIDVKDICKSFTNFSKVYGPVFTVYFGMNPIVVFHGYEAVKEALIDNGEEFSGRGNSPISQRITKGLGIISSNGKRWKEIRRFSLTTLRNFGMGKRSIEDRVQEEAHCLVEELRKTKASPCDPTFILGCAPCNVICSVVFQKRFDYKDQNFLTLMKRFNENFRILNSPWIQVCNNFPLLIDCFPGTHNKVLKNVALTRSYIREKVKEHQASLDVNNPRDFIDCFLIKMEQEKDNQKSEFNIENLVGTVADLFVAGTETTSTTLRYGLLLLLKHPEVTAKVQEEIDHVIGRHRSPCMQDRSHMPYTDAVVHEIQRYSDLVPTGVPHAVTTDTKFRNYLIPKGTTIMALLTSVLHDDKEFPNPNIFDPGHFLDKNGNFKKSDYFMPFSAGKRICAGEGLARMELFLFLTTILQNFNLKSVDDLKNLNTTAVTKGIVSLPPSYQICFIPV
In words: Single substrate (individual) CYP inhibition assay in human liver microsomes, LC-MS/MS. Particulars: read-out: Single Substrate IC50; substrate Paclitaxel 5 μM; HLM 0.2 mg/mL; 30 min; n = 4.

Series [5] has as its target T3, CYP2C8. To be noted: literature reported Km; metabolite 6-alpha hydroxyl-paclitaxel; cited from earlier work.
Series [6] has as its target T4, CYP3A4 (Homo sapiens, UniProt P08684). Particulars: reported; cited from earlier work.
In series [7] the target is T1, CYP2B6. To be noted: reported; cited from earlier work.
In series [8] the target is T4, CYP3A4. To be noted: literature reported Km; metabolite hydroxyl-testosterone; cited from earlier work.

T4 sequence (P08684 whole entry): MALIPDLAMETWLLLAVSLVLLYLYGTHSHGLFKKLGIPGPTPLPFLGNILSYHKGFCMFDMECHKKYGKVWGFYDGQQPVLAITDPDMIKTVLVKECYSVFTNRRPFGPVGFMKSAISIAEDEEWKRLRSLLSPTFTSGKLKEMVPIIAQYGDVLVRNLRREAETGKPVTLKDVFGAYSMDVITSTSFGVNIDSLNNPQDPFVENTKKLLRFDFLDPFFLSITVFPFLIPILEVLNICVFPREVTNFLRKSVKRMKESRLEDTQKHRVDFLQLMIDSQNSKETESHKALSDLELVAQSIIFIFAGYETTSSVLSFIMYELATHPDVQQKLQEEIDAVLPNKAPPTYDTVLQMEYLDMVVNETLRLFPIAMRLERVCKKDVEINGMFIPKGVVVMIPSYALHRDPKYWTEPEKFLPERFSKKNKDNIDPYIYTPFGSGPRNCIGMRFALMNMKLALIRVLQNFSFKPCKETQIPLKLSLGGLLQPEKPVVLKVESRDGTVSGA
Sequence of CYP2C9 (P11712 whole entry): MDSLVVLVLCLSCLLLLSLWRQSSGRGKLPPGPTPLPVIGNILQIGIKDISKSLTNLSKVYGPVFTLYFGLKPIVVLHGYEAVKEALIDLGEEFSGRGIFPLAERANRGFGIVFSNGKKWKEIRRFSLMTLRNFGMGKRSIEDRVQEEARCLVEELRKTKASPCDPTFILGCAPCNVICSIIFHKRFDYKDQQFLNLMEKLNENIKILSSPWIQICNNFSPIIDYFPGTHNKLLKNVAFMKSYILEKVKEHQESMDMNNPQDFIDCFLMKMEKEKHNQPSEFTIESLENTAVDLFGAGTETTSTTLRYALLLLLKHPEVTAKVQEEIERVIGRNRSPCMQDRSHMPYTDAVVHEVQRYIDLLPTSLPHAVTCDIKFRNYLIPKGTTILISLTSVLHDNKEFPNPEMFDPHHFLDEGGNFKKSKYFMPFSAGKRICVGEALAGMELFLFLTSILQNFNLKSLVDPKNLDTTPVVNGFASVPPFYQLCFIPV

For the compound `CC(NC(C)(C)C)C(=O)c1cccc(Cl)c1` (centres unmarked) [Bupropion], the Km in series [1] was 103 ± 7.65 µM. With `O=c1ccc2ccccc2o1` [Coumarin], the Michaelis-Menten constant (Km) in series [2] was 1.17 ± 0.118 µM. Turning to `O=C(O)Cc1ccccc1Nc1c(Cl)cccc1Cl` [Diclofenac], the Km in series [3] is 22 ± 11 µM. As for `CC(C)(O)c1ccccc1CC[C@@H](SCC1(CC(=O)O)CC1)c1cccc(/C=C/c2ccc3ccc(Cl)cc3n2)c1` [Montelukast], the IC50 in series [4] is 521 nM.

`CC(=O)O[C@H]1C(=O)[C@@]2(C)[C@H]([C@H](OC(=O)c3ccccc3)[C@]3(O)C[C@H](OC(=O)[C@H](O)[C@@H](NC(=O)c4ccccc4)c4ccccc4)C(C)=C1C3(C)C)[C@]1(OC(C)=O)CO[C@@H]1C[C@@H]2O` [Paclitaxel]: the Km in series [5] was 11.5 ± 7.5 µM. For the compound `CCOc1ccc(NC(C)=O)cc1` [Phenacetin], the “Inhibition of CYP3A4 by probe substrate” value in series [6] is reported as “weakly inhibit”. In addition, in series [7], the “Inhibition of CYP2B6 by probe substrate” value is on record as “weakly inhibit”. Take `C[C@]12CC[C@H]3[C@@H](CCC4=CC(=O)CC[C@@]43C)[C@@H]1CC[C@@H]2O` [Testosterone]: the Km in series [8] was 48.5 ± 3.75 µM.
